Measurements as given in patent US11053204B2, “Pyrimidinyloxy benzene derivatives as herbicides” (FMC Corporation, priority 2015, dated 2021).

Experiments:
Type in all cases: in vivo
[1] = system: ragweed (common ragweed, Ambrosia elatior); assay: Test C preemergence, plant response rating; conditions: Ambrosia artemisiifolia, pre-emergence, Preemergence
Outline: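 Visual injury score, 0 = no effect, 100 = complete control, assigned against untreated controls after 13 to 15 d in the greenhouse. Compounds were applied in a surfactant-containing non-phytotoxic solvent mix, preemergence to seeded loam/sand or silt loam soil, or postemergence to 1- to 4-leaf plants (2 to 18 cm).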

[2] = system: ducksalad (Heteranthera limosa); assay: Test B flooded paddy test, plant response rating; conditions: Heteranthera limosa, 312 h; 250 g ai/ha; Flood; scale of 0 to 100 where 0 is no effect and 100 is complete control; 13 to 15 days
Outline: (§1)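 Test compounds are applied straight into paddy water held 3 cm above the soil surface, with that flood maintained for the whole test. After 13 to 15 days in the greenhouse, each species is scored visually relative to controls.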

[3] = system: barnyardgrass (Echinochloa crus-galli); assay: Test B flooded paddy test, plant response rating; conditions: Echinochloa crus-galli, 312 h; 250 g ai/ha; Flood; scale of 0 to 100 where 0 is no effect and 100 is complete control; 13 to 15 days
Outline: as §1

[4] = system: sedge, umbrella (small-flower umbrella sedge, Cyperus difformis); assay: Test B flooded paddy test, plant response rating; conditions: Cyperus difformis, 312 h; 250 g ai/ha; Flood; scale of 0 to 100 where 0 is no effect and 100 is complete control; 13 to 15 days
Outline: as §1

rice (Oryza sativa) = assay: Test B flooded paddy test, plant response rating; conditions: Oryza sativa, 312 h; 250 g ai/ha; Flood; scale of 0 to 100 where 0 is no effect and 100 is complete control; 13 to 15 days
Outline: as §1

[5] = system: giant foxtail (Setaria faberii); assay: Test A preemergence, visual injury rating; conditions: Setaria faberi, pre-emergence, 240 h, 0 to 100 scale (0 no effect, 100 complete control), read-out: Foxtail, Giant plant response rating
Outline: (§2)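 Pre- and postemergence greenhouse screen. Soil: loam + sand. Spray carrier: solvent mixture, non-phytotoxic, with surfactant. Post timing at 1–2 leaves, height 2–10 cm. Readout: visual injury on a 0–100 scale roughly 10 days after application, untreated plants as reference.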

[6] = system: Italian ryegrass (Lolium multiflorum); assay: Test A preemergence, visual injury rating; conditions: Lolium multiflorum, pre-emergence, 240 h, 0 to 100 scale (0 no effect, 100 complete control), read-out: Ryegrass, Italian plant response rating
Outline: as §2

[7] = system: pigweed (Amaranthus retroflexus); assay: Test A preemergence, visual injury rating; conditions: Amaranthus retroflexus, pre-emergence, 240 h, 0 to 100 scale (0 no effect, 100 complete control), read-out: Pigweed plant response rating
Outline: as §2

kochia (Kochia scoparia) [8] = assay: Test A preemergence, visual injury rating; conditions: Bassia scoparia, pre-emergence, 240 h, 0 to 100 scale (0 no effect, 100 complete control), read-out: Kochia plant response rating
Outline: as §2

[9] = system: barnyardgrass (Echinochloa crus-galli); assay: Test A preemergence, visual injury rating; conditions: Echinochloa crus-galli, pre-emergence, 240 h, 0 to 100 scale (0 no effect, 100 complete control), read-out: Barnyardgrass plant response rating
Outline: as §2

[10] = system: ragweed (common ragweed, Ambrosia elatior); assay: Test A preemergence, visual injury rating; conditions: Ambrosia artemisiifolia, pre-emergence, 240 h, 0 to 100 scale (0 no effect, 100 complete control), read-out: Ragweed plant response rating
Outline: as §2

[11] = system: giant foxtail (Setaria faberii); assay: Test A postemergence, visual injury rating; conditions: Setaria faberi, post-emergence, 240 h, 0 is no effect, 100 is complete control, read-out: Foxtail, Giant plant response rating (0 to 100 scale)
Outline: as §2

[12] = system: galium (catchweed bedstraw, Galium aparine); assay: Test A postemergence, visual injury rating; conditions: Galium, post-emergence, 240 h, 0 is no effect, 100 is complete control, read-out: Galium plant response rating (0 to 100 scale)
Outline: as §2

corn (Zea mays) = assay: Test A postemergence, visual injury rating; conditions: Zea mays, post-emergence, 240 h, 0 is no effect, 100 is complete control, read-out: Corn plant response rating (0 to 100 scale)
Outline: as §2

[13] = system: Italian ryegrass (Lolium multiflorum); assay: Test A postemergence, visual injury rating; conditions: Lolium multiflorum, post-emergence, 240 h, 0 is no effect, 100 is complete control, read-out: Ryegrass, Italian plant response rating (0 to 100 scale)
Outline: as §2

[14] = system: pigweed (Amaranthus retroflexus); assay: Test A postemergence, visual injury rating; conditions: Amaranthus retroflexus, post-emergence, 240 h, 0 is no effect, 100 is complete control, read-out: Pigweed plant response rating (0 to 100 scale)
Outline: as §2

[15] = system: blackgrass (Alopecurus myosuroides); assay: Test A postemergence, visual injury rating; conditions: Alopecurus myosuroides, post-emergence, 240 h, 0 is no effect, 100 is complete control, read-out: Blackgrass plant response rating (0 to 100 scale)
Outline: as §2

kochia (Kochia scoparia) [16] = assay: Test A postemergence, visual injury rating; conditions: Bassia scoparia, post-emergence, 240 h, 0 is no effect, 100 is complete control, read-out: Kochia plant response rating (0 to 100 scale)
Outline: as §2

[17] = system: wheat (Triticum aestivum); assay: Test A postemergence, visual injury rating; conditions: Triticum aestivum, post-emergence, 240 h, 0 is no effect, 100 is complete control, read-out: Wheat plant response rating (0 to 100 scale)
Outline: as §2

[18] = system: barnyardgrass (Echinochloa crus-galli); assay: Test A postemergence, visual injury rating; conditions: Echinochloa crus-galli, post-emergence, 240 h, 0 is no effect, 100 is complete control, read-out: Barnyardgrass plant response rating (0 to 100 scale)
Outline: as §2

[19] = system: ragweed (common ragweed, Ambrosia elatior); assay: Test A postemergence, visual injury rating; conditions: Ambrosia artemisiifolia, post-emergence, 240 h, 0 is no effect, 100 is complete control, read-out: Ragweed plant response rating (0 to 100 scale)
Outline: as §2

O=C(OCCCC(F)(F)F)c1c(Br)cccc1Oc1ncc(Cl)cn1 [Compound 20, 4,4,4-trifluorobutyl 2-bromo-6-[(5-chloro-2-pyrimidinyl)oxy]benzoate] was tested, and the pest or weed control at 125 g/ha ([1]; 125 g ai/ha, scale of 0 to 100) was 0%, the pest or weed control at 16 g/ha ([1]; 16 g ai/ha, scale 0 to 100) was 0% and the pest or weed control at 31 g/ha ([1]; 31 g ai/ha, scale 0 to 100) was 0%. For the same molecule, the pest or weed control at 62 g/ha ([1]; 62 g ai/ha, scale 0 to 100) was 0%, the pest or weed control at 250 g/ha [2] was 30% and the pest or weed control at 250 g/ha [3] was 0%. It also gave a pest or weed control at 250 g/ha [4] of 40%, a plant injury at 250 g/ha (rice (Oryza sativa)) of 0% and a pest or weed control at 125 g/ha ([5]; 125 g ai/ha) of 100%. The pest or weed control at 500 g/ha ([5]; 500 g ai/ha) was 100%, the pest or weed control at 125 g/ha ([6]; 125 g ai/ha) was 30% and the pest or weed control at 500 g/ha ([6]; 500 g ai/ha) was 90%. For the same molecule, the pest or weed control at 125 g/ha ([7]; 125 g ai/ha) was 100%, the pest or weed control at 500 g/ha ([7]; 500 g ai/ha) was 100% and the pest or weed control at 125 g/ha (kochia (Kochia scoparia) [8]; 125 g ai/ha) was 30%. The pest or weed control at 500 g/ha (kochia (Kochia scoparia) [8]; 500 g ai/ha) was 100%, the pest or weed control at 125 g/ha ([9]; 125 g ai/ha) was 100% and the pest or weed control at 500 g/ha ([9]; 500 g ai/ha) was 100%. It also gave a pest or weed control at 125 g/ha ([10]; 125 g ai/ha) of 0%, a pest or weed control at 500 g/ha ([10]; 500 g ai/ha) of 0% and a pest or weed control at 125 g/ha ([11]; 125 g ai/ha) of 50%. It also gave a pest or weed control at 500 g/ha ([11]; 500 g ai/ha) of 100%, a pest or weed control at 125 g/ha ([12]; 125 g ai/ha) of 10% and a pest or weed control at 500 g/ha ([12]; 500 g ai/ha) of 90%. It also gave a plant injury at 125 g/ha (corn (Zea mays); 125 g ai/ha) of 30%, a plant injury at 500 g/ha (corn (Zea mays); 500 g ai/ha) of 40% and a pest or weed control at 125 g/ha ([13]; 125 g ai/ha) of 0%. The pest or weed control at 500 g/ha ([13]; 500 g ai/ha) was 40%, the pest or weed control at 125 g/ha ([14]; 125 g ai/ha) was 100% and the pest or weed control at 500 g/ha ([14]; 500 g ai/ha) was 100%. For the same molecule, the pest or weed control at 125 g/ha ([15]; 125 g ai/ha) was 30%, the pest or weed control at 500 g/ha ([15]; 500 g ai/ha) was 50% and the pest or weed control at 125 g/ha (kochia (Kochia scoparia) [16]; 125 g ai/ha) was 90%. The pest or weed control at 500 g/ha (kochia (Kochia scoparia) [16]; 500 g ai/ha) was 100%, the plant injury at 125 g/ha ([17]; 125 g ai/ha) was 0% and the plant injury at 500 g/ha ([17]; 500 g ai/ha) was 20%. It also gave a pest or weed control at 125 g/ha ([18]; 125 g ai/ha) of 30%, a pest or weed control at 500 g/ha ([18]; 500 g ai/ha) of 100% and a pest or weed control at 125 g/ha ([19]; 125 g ai/ha) of 0%. The pest or weed control at 500 g/ha ([19]; 500 g ai/ha) was 40%.
